# Measured values as given in patent US20260224486A1, “DIANHYDROHEXITOL BASED IONIZABLE LIPIDS FOR NUCLEIC ACID DELIVERY” (SANOFI PASTEUR INC., priority 2023, published 2026).
# Tested on: BALB/cJ mice
# Assay: Delivery of hEPO mRNA by intramuscular administration of LNPs; serum hEPO by ELISA
# Type: in vivo, Mouse
# Details: Table 2, isosorbide-derived lipids; mouse serum 6 hours post single IM injection of 0.1 μg hEPO mRNA LNP
# Experimental: In summary, lipid screening studies were conducted with female BALB/cJ mice 6-8 weeks of age. Mice were dosed with 0.1 μg in 30 μL of LNPs by a single intramuscular (IM) injection into the gastrocnemius leg muscle. Blood samples were taken 6 and 24 hours post injection and hEPO levels were measured in the blood serum of the mice using an ELISA assay according to the manufacture's protocol.
# Treatment Regimen: On Day 1, animals from Groups 1-33 were dosed via intramuscular injection while under light isoflurane anesthesia according to the study design table above. Animals in Groups 1-33 were injected with EPO mRNA LNPs in the right leg only. Groups 1 and 17 animals received MC3 control.
# Interim Sample Collections: Interim whole blood (^~50 μL) was collected by tail snip or saphenous vein at 6 and 24 hours post dose administration (±5%). Blood samples were collected into serum separator tubes, allowed to clot at room temperature for at least 10 minutes, centrifuged at ambient temperature at minimum 1000 g for 10 minutes and the serum was extracted. All serum samples were stored at nominally −70° C. until analysis hEPO by the Testing Facility. The results of the EPO analysis were included in the Data Submission.
# Terminal Blood Collections: Whole blood was collected via cardiac puncture into serum separator tube, allowed to clot at room temperature for at least 10 minutes, centrifuged at ambient temperature at minimum 1000 g for 10 minutes and the serum was extracted. Serum samples were stored at nominally −70° C. until analyzed for hEPO by the Test Facility.
# ELISA Assay: Human erythropoietin (hEPO) levels in sera samples were determined by ELISA kit (R&D systems, Cat #DEP-00) according to the manufactory instruction and the results were included in the Data Submission. The “shaker” protocol was used. The serum samples were diluted between 1:40 and 1:100.
row,Compound,hEPO 6 Hr (ng/ml) Mean [ng/mL]
1,"CCCCC/C=C\C/C=C\CCCCCCCCC(CCCCCCCC/C=C\C/C=C\CCCCC)OC(=O)CCCN(C)C [MC3, reference compound]",7.1

# Same assay, conditions: Table 3, isomannide-derived lipids; mouse serum 6 hours post single IM injection of 0.1 μg hEPO mRNA LNP
row,Compound,hEPO 6 Hr (ng/mL) Mean [ng/mL]
1,"CCCCC/C=C\C/C=C\CCCCCCCCC(CCCCCCCC/C=C\C/C=C\CCCCC)OC(=O)CCCN(C)C [MC3, reference compound]",5.6

# Same assay, conditions: Table 4, further lipids; mouse serum 6 hours post IM injection of hEPO mRNA LNP as in example 3
row,Compound,hEPO 6 Hr (ng/ml) Mean [ng/mL]
1,CCCCCCCCCCCOC(=O)CCCCCN(CCCCCCCC(=O)OC(CCCCCCCC)CCCCCCCC)CCCCSC(=O)N[C@H]1CO[C@H]2[C@@H]1OC[C@@H]2NC(=O)SCCCCN(CCCCCCCC(=O)OC(CCCCCCCC)CCCCCCCC)CCCCCC(=O)OCCCCCCCCCCC (stereo in doubt) [Compound 84],22.1
2,CCCCCCCCCCCOC(=O)CCCC(O)CN(CCCC(=O)O[C@@H]1CO[C@H]2[C@@H]1OC[C@H]2OC(=O)CCCN(CC(O)CCCCCOC(=O)C(CCCCCCCC)CCCCCCCC)CC(O)CCCC(=O)OCCCCCCCCCCC)CC(O)CCCCCOC(=O)C(CCCCCCCC)CCCCCCCC (stereo partly shown) [Compound 12],34.4
3,CCCCCCCCCCC(O)CN(CCCC(=O)S[C@H]1CO[C@H]2[C@@H]1OC[C@@H]2SC(=O)CCCN(CC(O)CCCCCCCCCC)CC(O)CCCCCCCCCC)CC(O)CCCCCCCCCC (stereo partly shown) [Compound 44],2.0
4,CCCCCCCCCCC(O)CN(CCCSS[C@H]1CO[C@H]2[C@@H]1OC[C@@H]2SSCCCN(CC(O)CCCCCCCCCC)CC(O)CCCCCCCCCC)CC(O)CCCCCCCCCC (stereo partly shown) [Compound 45],2.2
5,CCCCCCCCCCC(O)CN(CCCCS[C@H]1CO[C@H]2[C@@H]1OC[C@@H]2SCCCCN(CC(O)CCCCCCCCCC)CC(O)CCCCCCCCCC)CC(O)CCCCCCCCCC (stereo partly shown) [Compound 46],2.1
6,CCCCCCCCCCC(O)CCN(CCCNC(=O)O[C@@H]1CO[C@H]2[C@@H]1OC[C@H]2OC(=O)NCCCN(CC(O)CCCCCCCCCC)CC(O)CCCCCCCCCC)C(O)CCCCCCCCCC (stereo partly shown) [Compound 48],81.3
7,CCCCCCCCCCC(O)CN(CCCCC(=O)O[C@@H]1CO[C@H]2[C@@H]1OC[C@H]2OC(=O)CCCN(CC(O)CCCCCCCCCC)CC(O)CCCCCCCCCC)CC(O)CCCCCCCCCC (stereo partly shown) [Compound 56],51.9
8,CCCCCCCCCCCCCCC(O)CN(CCCC(=O)O[C@@H]1CO[C@H]2[C@@H]1OC[C@@H]2OC(=O)CCCCN(CC(O)CCCCCCCCCC)CC(O)CCCCCCCCCC)CC(O)CCCCCCCCCCCCCC (stereo partly shown) [Compound 63],60.5
9,CCCCCCCCCCCOC(=O)CCCC(O)CN(CCCC(=O)O[C@H]1CO[C@H]2[C@@H]1OC[C@H]2OC(=O)CCCN(CC(O)CCCCCOC(=O)C(CCCCCCCC)CCCCCCCC)CC(O)CCCC(=O)OCCCCCCCCCCC)CC(O)CCCCCOC(=O)C(CCCCCCCC)CCCCCCCC (stereo partly shown) [Compound 64],36.2
10,CCCCCCCCCCCOC(=O)CCCC(O)CN(CCCCC(=O)O[C@@H]1CO[C@H]2[C@@H]1OC[C@@H]2OC(=O)CCCN(CC(O)CCCCCC(=O)OC(CCCCCCCC)CCCCCCCC)CC(O)CCCC(=O)OCCCCCCCCCCC)CC(O)CCCCCC(=O)OC(CCCCCCCC)CCCCCCCC (stereo partly shown) [Compound 66],23.2
11,CCCCCCCCCCC(O)CN(CCCCCC(=O)O[C@@H]1CO[C@H]2[C@@H]1OC[C@@H]2OC(=O)CCCCN(CC(O)CCCCCCCCCC)CC(O)CCCCCCCCCC)CC(O)CCCCCCCCCC (stereo partly shown) [Compound 67],34.4
12,CCCCCCCCC(O)CN(CCCCC(=O)N[C@H]1CO[C@H]2[C@@H]1OC[C@@H]2NC(=O)CCCCN(CC(O)CCCCCCCC)CC(O)CCCCCCCC)CC(O)CCCCCCCC (stereo partly shown) [Compound 70],47.6
13,CCCCCCCCCCC(O)CN(CCCCC(=O)N[C@H]1CO[C@H]2[C@@H]1OC[C@@H]2NC(=O)CCCCN(CC(O)CCCCCCCCCC)CC(O)CCCCCCCCCC)CC(O)CCCCCCCCCC (stereo partly shown) [Compound 71],72.0
14,CCCCCCCCCCCOC(=O)CCCCCN(CCCCCCCC(=O)OC(CCCCCCCC)CCCCCCCC)CCCC(=O)N[C@H]1CO[C@H]2[C@@H]1OC[C@@H]2NC(=O)CCCN(CCCCCCCC(=O)OC(CCCCCCCC)CCCCCCCC)CCCCCC(=O)OCCCCCCCCCCC [Compound 72],6.2
15,CCCCCCCCCCCOC(=O)CCCC(O)CN(CCCC(=O)N[C@H]1CO[C@H]2[C@@H]1OC[C@@H]2NC(=O)CCCN(CC(O)CCCCCC(=O)OC(CCCCCCCC)CCCCCCCC)CC(O)CCCC(=O)OCCCCCCCCCCC)CC(O)CCCCCC(=O)OC(CCCCCCCC)CCCCCCCC (stereo partly shown) [Compound 73],23.4
16,CCCCCC/C=C\COC(=O)CCCCCC(O)CN(CCCC(=O)N[C@H]1CO[C@H]2[C@@H]1OC[C@@H]2NC(=O)CCCN(CC(O)CCCCCC(=O)OC/C=C\CCCCCC)CC(O)CCCCCC(=O)OC/C=C\CCCCCC)CC(O)CCCCCC(=O)OC/C=C\CCCCCC (stereo partly shown) [Compound 74],2.1
17,CCCCCC/C=C\COC(=O)CCCCCCCN(CCCCCCCC(=O)OC/C=C\CCCCCC)CCCC(=O)N[C@H]1CO[C@H]2[C@@H]1OC[C@@H]2NC(=O)CCCN(CCCCCCCC(=O)OC/C=C\CCCCCC)CCCCCCCC(=O)OC/C=C\CCCCCC [Compound 75],2.1
18,CCCCCCCCC(O)CN(CCCOC(=O)O[C@@H]1CO[C@H]2[C@@H]1OC[C@H]2OC(=O)OCCCN(CC(O)CCCCCCCC)CC(O)CCCCCCCC)CC(O)CCCCCCCC (stereo partly shown) [Compound 79],21.2
19,CCCCCCCCCCC(O)CN(CCCCC(=O)S[C@H]1CO[C@H]2[C@@H]1OC[C@@H]2SC(=O)CCCCN(CC(O)CCCCCCCCCC)CC(O)CCCCCCCCCC)CC(O)CCCCCCCCCC (stereo partly shown) [Compound 80],0.9
20,CCCCCCCCCCC(O)CN(CCCS[C@H]1CO[C@H]2[C@@H]1OC[C@@H]2SCCCN(CC(O)CCCCCCCCCC)CC(O)CCCCCCCCCC)CC(O)CCCCCCCCCC (stereo partly shown) [Compound 81],2.3
21,CCCCCCCCCCCCC(O)CN(CCCC(=O)S[C@H]1CO[C@H]2[C@@H]1OC[C@@H]2SC(=O)CCCN(CC(O)CCCCCCCCCCCC)CC(O)CCCCCCCCCCCC)CC(O)CCCCCCCCCCCC (stereo partly shown) [Compound 82],3.1
22,CCCCCCCCCCCCC(O)CN(CCCCC(=O)SC1CO[C@@H]2C(SC(=O)CCCCN(CC(O)CCCCCCCCCCCC)CC(O)CCCCCCCCCCCC)CO[C@H]12)CC(O)CCCCCCCCCCCC (stereo partly shown) [Compound 83],8.0
23,CCCCCC/C=C\COC(=O)CCCCCCCN(CCCCCCCC(=O)OC/C=C\CCCCCC)CCCCSC(=O)N[C@@H]1CO[C@H]2[C@@H]1OC[C@H]2NC(=O)SCCCCN(CCCCCCCC(=O)OC/C=C\CCCCCC)CCCCCCCC(=O)OC/C=C\CCCCCC [Compound 85],23.8

# Same assay, conditions: Table 5, comparative ether compounds; mouse serum 6 hours post IM injection of hEPO mRNA LNP as in example 3
row,Compound,hEPO 6 Hr (ng/ml) Mean [ng/mL]
1,CCCCCCCCC(O)CN(CCCO[C@@H]1CO[C@H]2[C@@H]1OC[C@H]2OCCCN(CC(O)CCCCCCCC)CC(O)CCCCCCCC)CC(O)CCCCCCCC (stereo partly shown) [reference compound],11.3
2,CCCCCCCCCCC(O)CN(CCCO[C@@H]1CO[C@H]2[C@@H]1OC[C@H]2OCCCN(CC(O)CCCCCCCCCC)CC(O)CCCCCCCCCC)CC(O)CCCCCCCCCC (stereo partly shown) [reference compound],33.8
3,CCCCCCCCCCCCC(O)CN(CCCO[C@@H]1CO[C@H]2[C@@H]1OC[C@H]2OCCCN(CC(O)CCCCCCCCCCCC)CC(O)CCCCCCCCCCCC)CC(O)CCCCCCCCCCCC (stereo partly shown) [reference compound],13.9
